From US10344026B2, “Compositions and methods of targeting mutant K-ras” (NANTBIO, INC., priority 2017, dated 2019)

Assays:
Type in all cases: cell-based
[1] = system: Panc1-G12D; assay: Viability assay (CellTiterBlue, 72 hr) Panc1; details: Homo sapiens, PANC-1, GI50, CellTiterBlue, Panc1 K-Ras G12D, read-out: 72 hr Cell Viability Panc1 (G12D)
Outline: (§1)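 Fluorescence at Ex550/Em590, read 3 hr after CellTiterBlue addition, served as the viability signal following 72 hr compound treatment. Wells held 1000 cells, pre-incubated 18 hr at 37 °C, with 0.5% DMSO final. GI50 derived with DMSO as 100% and 100 uM tamoxifen as 0% viability.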

[2] = system: HCC827 (K-Ras wild type cell line); assay: Viability assay (CellTiterBlue, 72 hr) HCC827; details: Homo sapiens, GI50, CellTiterBlue, HCC827 K-Ras wild-type
Outline: as §1

[3] = system: phospho-Akt in Panc1 (G12D); assay: In-Cell Western phospho-Akt, Panc1; details: Homo sapiens, PANC-1, 1 h; Panc1, one hour treatment; read-out: In-Cell Western Panc1 (G12D) Akt (P)
Outline: (§2)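 3000 cells/well, 18 hr pre-incubation; 1 hr compound exposure, 0.5% DMSO final. Formaldehyde fix, Triton permeabilization, primary Ab overnight 4° C, secondary 2 hr. Fluorescence imaging; EC50.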

[4] = system: Panc10.05-G12D; assay: Viability assay (CellTiterBlue, 72 hr) Panc10.05; details: Homo sapiens, Panc1005, GI50, CellTiterBlue, Panc10.05 K-Ras G12D, read-out: 72 hr Cell Viability Panc10.05 (G12D)
Outline: as §1

[5] = system: U87-MG (K-Ras wild type cell line); assay: Viability assay (CellTiterBlue, 72 hr) U87-MG; details: Homo sapiens, U-87 MG, GI50, CellTiterBlue, U87-MG K-Ras wild-type
Outline: as §1

[6] = system: phospho-ERK in A375 (Wild-type); assay: In-Cell Western phospho-ERK, A375; details: Homo sapiens, A-375, 1 h; A375, one hour treatment; read-out: In-Cell Western A375 (Wild-type) Erk (P)
Method: (§3) In-cell phosphorylation assays for Erk and Akt were performed on several of the compounds and exemplary results are shown in Table 3 below using HCC827 and A375 cell lines for wild type K-Ras and Panc1 and Panc10.05 cell lines for G12D K-Ras mutants. Results are expressed in μM and corresponding structures are shown in FIGS. 2A-2G and Examples 1-152, above.
(§4) Cells are seeded in complete medium into black sided, clear-bottom 384-well microplates at 3000 cells/[…]/well. Plates are returned to 37° C. CO2 incubator for 18 hr. Drug is made as 200× in DMSO and diluted into medium to 10×. To each well is added 4 ul 10× test article or controls, and plates are returned to the incubator. Final assay DMSO concentration is 0.5%. After one hour, cells are fixed in formaldehyde, rinsed & permeabilized with triton X-100, and blocked with BSA/Goat serum blocking solution. Primary phospho-Akt and phospho-ERK antibodies are added and plates are incubated overnight at 4° C. Plates are rinsed with Tween-20 wash buffer and secondary antibody (Goat anti-rabbit, Thermofisher) is added. After 2 hours, plates are rinsed in Tween-20 wash buffer, and then PBS. Plates are imaged on the Celigo (Nexcelom) and cellular fluorescence is quantitated. Full inhibition of phospho-Akt is achieved with 1 uM BEZ235 (Sellekchem), while full inhibition of phospho-ERK is achieved with 1 uM MEK Inhibitor II Calbiochem). EC50 values are calculated using Graphpad Prism.

[7] = system: A375 (K-Ras wild type cell line); assay: Viability assay (CellTiterBlue, 72 hr) A375; details: Homo sapiens, A-375, GI50, CellTiterBlue
Method: Viability assays were performed on exemplary compounds and Table 2 below lists exemplary results for selected compounds tested on K-Ras wild type cell lines (Ishikawa, U87-MG, HCC827, and A375) and various K-Ras mutant cell lines (Panc1-G12D; Panc10.05-G12D; HCT116-G31D). Results are expressed in μM and corresponding structures are shown in FIGS. 2A-2G and Examples 1-152, above.
Cells are counted and seeded at 1000 cells/36 ul medium/well into 384-well microplates. Cells are returned to 37° C. CO2 incubator for 18 hr. Drug is made as 200× in DMSO and diluted into medium to 10×. To each well is added 4 ul 10× drug, and plates are returned to the incubator. Final assay DMSO concentration is 0.5%. After 72 hr, 8 ul CellTiterBlue (Promega) is added to each well. After 3 hr, fluorescence (Ex550/Em590) is determined on the Victor Plate Reader (Perkin Elmer). Assay range is determined by DMSO control (100% viability) and 100 uM tamoxifen (0% viability). GI50 values are calculated using Graphpad Prism.

[8] = system: phospho-ERK in Panc10.05 (G12D); assay: In-Cell Western phospho-ERK, Panc10.05; details: Homo sapiens, Panc1005, 1 h; Panc10.05, one hour treatment; read-out: In-Cell Western Panc10.05 (G12D) Erk (P)
Outline: as §2

[9] = system: phospho-Akt in Panc10.05 (G12D); assay: In-Cell Western phospho-Akt, Panc10.05; details: Homo sapiens, Panc1005, 1 h; Panc10.05, one hour treatment; read-out: In-Cell Western Panc10.05 (G12D) Akt (P)
Outline: as §2

[10] = system: Ishikawa (K-Ras wild type cell line); assay: Viability assay (CellTiterBlue, 72 hr) Ishikawa; details: Homo sapiens, GI50, CellTiterBlue, Ishikawa K-Ras wild-type
Outline: as §1

[11] = system: phospho-ERK in Panc1 (G12D); assay: In-Cell Western phospho-ERK, Panc1; details: Homo sapiens, PANC-1, 1 h; Panc1, one hour treatment; read-out: In-Cell Western Panc1 (G12D) Erk (P)
Outline: as §2

[12] = target: T1, wild type K-Ras (Homo sapiens, UniProt P01116); assay: G-LISA Ras activation, 293H cells transfected with Ras wild-type, EGF stimulated; details: compound 1 hour, then 100 ng/ml EGF 2 minutes
T1 construct: expressed in transfected cells; host or cells: 293H cells
Outline: (§5)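 293H cells transfected with 5 μg Ras wild-type or mutant plasmid (Lipofectamine 3000); next day treated with 3.125-25 μM compound for 1 h. Wild-type-transfected cells then stimulated with 100 ng/ml EGF for 2 min. Active Ras measured by G-LISA in ice-cold lysates.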

[13] = system: phospho-ERK in HCC827 (Wild-type); assay: In-Cell Western phospho-ERK, HCC827; details: Homo sapiens, 1 h; HCC827, one hour treatment; read-out: In-Cell Western HCC827 (Wild-type) Erk (P)
Method: as §3, §4

[14] = target: T2, K-Ras G12D (Homo sapiens, UniProt P01116, G12D); assay: G-LISA Ras activation, 293H cells transfected with G12D mutant; details: compound 1 hour
T2 construct: expressed in transfected cells; host or cells: 293H cells
Outline: as §5

[15] = system: phospho-Akt in A375 (Wild-type); assay: In-Cell Western phospho-Akt, A375; details: Homo sapiens, A-375, 1 h; A375, one hour treatment; read-out: In-Cell Western A375 (Wild-type) Akt (P)
Method: as §3, §4

[16] = system: HCT116-G31D; assay: Viability assay (CellTiterBlue, 72 hr) HCT116; details: Homo sapiens, HCT-116, GI50, CellTiterBlue, HCT116 K-Ras G13D, read-out: 72 hr Cell Viability HCT116 (G13D)
Outline: as §1

T1 sequence (P01116 whole entry): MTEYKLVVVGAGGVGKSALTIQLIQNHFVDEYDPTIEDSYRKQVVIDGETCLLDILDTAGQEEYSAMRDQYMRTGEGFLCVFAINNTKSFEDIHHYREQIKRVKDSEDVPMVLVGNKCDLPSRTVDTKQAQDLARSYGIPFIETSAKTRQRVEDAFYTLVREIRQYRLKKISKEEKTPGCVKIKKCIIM
T2 sequence (P01116 whole entry G12D): as the sequence (P01116 whole entry) above, with G12D counted along it

SMILES | IC50 [1] | IC50 [2] | EC50 [3] | IC50 [4] | IC50 [5] | EC50 [6] | IC50 [7] | EC50 [8] | EC50 [9] | IC50 [10] | EC50 [11] | IC50 [12] | EC50 [13] | IC50 [14] | EC50 [15] | IC50 [16]
Cn1nc(C(C)(C)C)cc1C(=O)Nc1nc(-c2ccc3c(c2)CCC(=O)N3)cs1 [Compound 43, 3-(tert-butyl)-1-methyl-N-(4-(2-oxo-1,2,3,4-tetrahydroquinolin-6-yl)thiazol-2-yl)-1H-pyrazole-5-carboxamide] | > 25 µM | > 25 µM | > 25 µM | > 25 µM | > 25 µM | > 25 µM | > 25 µM | > 25 µM | > 25 µM | > 25 µM | > 25 µM | > 25 µM | 19 µM | > 25 µM | > 25 µM | > 25 µM
Cn1nc(C(F)F)cc1C(=O)Nc1nc(-c2ccc3c(c2)CCC(=O)N3)cs1 [Compound 49, 3-(difluoromethyl)-1-methyl-N-(4-(2-oxo-1,2,3,4-tetrahydroquinolin-6-yl)thiazol-2-yl)-1H-pyrazole-5-carboxamide] | > 25 µM | > 25 µM | > 25 µM | > 25 µM | > 25 µM | > 25 µM | > 25 µM | 19 µM | 20 µM | > 25 µM | > 25 µM | – | > 25 µM | 12.3 µM | > 25 µM | > 25 µM
Cc1nc(C)c(C(=O)Nc2nc(-c3ccc4c(c3)CCC(=O)N4C3CCCC3)cs2)o1 [Compound 69, N-(4-(1-cyclopentyl-2-oxo-1,2,3,4-tetrahydroquinolin-6-yl)thiazol-2-yl)-2,4-dimethyloxazole-5-carboxamide] | 7 µM | 2 µM | 6 µM | 3 µM | > 25 µM | 3 µM | > 25 µM | 2 µM | 17 µM | > 25 µM | 8 µM | 18.6 µM | 5 µM | 8.1 µM | 2 µM | 2 µM
Cc1nc(C2CCC2)oc1C(=O)Nc1nc(-c2ccc3c(c2)CCC(=O)N3Cc2cccnc2)cs1 [Compound 92, 2-cyclobutyl-4-methyl-N-(4-(2-oxo-1-(pyridin-3-ylmethyl)-1,2,3,4-tetrahydroquinolin-6-yl)thiazol-2-yl)oxazole-5-carboxamide] | 6 µM | 4 µM | – | 3 µM | > 25 µM | > 25 µM | > 25 µM | 2 µM | 17 µM | > 25 µM | 6 µM | 15.2 µM | 15 µM | 8.5 µM | > 25 µM | 1.5 µM
Cc1nc(C2CCCCC2)oc1C(=O)Nc1nc(-c2ccc3c(c2)CCC(=O)N3Cc2cccnc2)cs1 [Compound 101, 2-cyclohexyl-4-methyl-N-(4-(2-oxo-1-(pyridin-3-ylmethyl)-1,2,3,4-tetrahydroquinolin-6-yl)thiazole-2-yl)oxazole-5-carboxamide] | 2 µM | > 25 µM | > 25 µM | 4 µM | > 25 µM | > 25 µM | 4 µM | 3 µM | > 25 µM | 2 µM | 18 µM | – | 14 µM | 9.3 µM | > 25 µM | 14 µM
CCc1nc(C)c(C(=O)Nc2nc(-c3ccc4c(c3)CCC(=O)N4C(C)c3cccnc3)cs2)o1 (centres unmarked) [Compound 102, 2-ethyl-4-methyl-N-(4-(2-oxo-1-(1-(pyridin-3-yl)ethyl)-1,2,3,4-tetrahydroquinolin-6-yl)thiazol-2-yl)oxazole-5-carboxamide] | > 25 µM | > 25 µM | > 25 µM | 5 µM | > 25 µM | 26 µM | > 25 µM | 19 µM | > 25 µM | > 25 µM | 8 µM | – | 11 µM | 8.2 µM | > 25 µM | 13 µM
Cc1nc(C)c(C(=O)Nc2nc(-c3ccc4c(c3)CCC(=O)N4CCC(=O)N(C)C)cs2)o1 [Compound 103, N-(4-(1-(3-(dimethylamino)-3-oxopropyl)-2-oxo-1,2,3,4-tetrahydroquinolin-6-yl)thiazol-2-yl)-2,4-dimethyloxazole-5-carboxamide] | > 25 µM | > 25 µM | > 25 µM | 5 µM | > 25 µM | 29 µM | > 25 µM | > 25 µM | > 25 µM | > 25 µM | > 25 µM | – | 14 µM | 14.9 µM | > 25 µM | 25 µM
Cc1nc(C)c(C(=O)Nc2nc(-c3ccc4c(c3)CCC(=O)N4Cc3cccnc3)cs2)s1 [Compound 105, 2,4-dimethyl-N-(4-(2-oxo-1-(pyridin-3-ylmethyl)-1,2,3,4-tetrahydroquinolin-6-yl)thiazol-2-yl)thiazole-5-carboxamide] | 12 µM | > 25 µM | > 25 µM | 2 µM | > 25 µM | > 25 µM | 25 µM | 11 µM | > 25 µM | > 25 µM | 5 µM | – | 19 µM | 10.4 µM | > 25 µM | 13 µM
